In patent US12509431B2, “1,4-dihydroquinazolinone compounds and uses thereof” (Edgewise Therapeutics, Inc., priority 2022, dated 2025):
Read-outs that look alike come from different tables or passages of the source.

Columns and labels:
[1] = tested on: Rabbit Skeletal myofibrils (rabbit psoas muscle); assay: Myofibril ATPase assay (PK/LDH NADH-coupled), skeletal myofibrils; type: biochemical
Outline: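 Rabbit psoas myofibrils in pCa (PIPES/CaCl2/EGTA, pH 7.0) buffer; ADP coupled via PK/LDH to NADH loss, read at 340 nm every 1.5–2 min for 75 min. Slopes normalized to vehicle (100%) and fit to 4-parameter logistic for EC25, plus EC50 for inhibitors.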

[2] = tested on: isoflurane-anesthetized SD rats; assay: In vivo echocardiography of systolic cardiac performance (FS, SWT, HR, LV volumes) after a single oral dose; settings: Rattus norvegicus, single dose 10 mg/kg PO, ~2 hrs post-dosing, vs. vehicle
Procedure: Experiments were performed to evaluate the in vivo ability of the compounds of the disclosure to modulate systolic cardiac performance. Non-invasively echocardiography was used to assess cardiac indicators in isoflurane-anesthetized SD rats. A set of conscious rats were treated with either vehicle control (0 mg/kg PO; n=78) or a single dose of an test compound (10 mg/kg PO, n=2 to 6/compound) via oral gavage. Cardiac function/geometry were recorded at two separate time-points/days: once prior to dosing (i.e., at baseline, day −2) and at ˜2 hrs post-dosing (day 0).
In these experiments, heart rate (HR), echocardiography-derived indices of left-ventricular systolic performance, as well as dimensions/volumes were measured using a high-frequency transducer and parastemnal long-axis transthoracic views (Vevo3100, VisualSonic). LV fractional shortening (FS), an index of systolic function, was defined as the end-diastole normalized change in internal dimensions divided by the […] (LVid) of the left ventricle between end-systole (LVids) and end-diastole (LVidd) (i.e., FS=100·[LVidd−LVids]/LVidd). LV volumes were derived using the Teichholz formula (LVV=7·LVid^3/[2.4+LVid]). In addition, a systolic wall-thickening index (SWT) was also evaluated. SWT is defined as the relative ratio (end-diastole normalized) of left-ventricular (anterior and posterior) wall-thickness change during systole; i.e., SWT=I{[(anterior LV wall thickness in systole−anterior LV wall thickness in diastole)][…][(posterior LV wall thickness in systole−posterior LV wall thickness in diastole)]}/{2*diastolic thickness}. In all cases, blood samples were taken (via either tail-vein micro-sampling or cardiac-puncture) at the time of each echocardiographic examination in order to establish pharmacokinetic (PK)/pharmacodynamics (PD) relationships.

[3] = tested on: Porcine Atria myofibrils; assay: Myofibril ATPase assay (PK/LDH NADH-coupled), atria myofibrils; type: biochemical
Outline: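 Porcine atrial myofibril ATPase followed via PK/LDH-coupled NADH depletion, absorbance at 340 nm read every 1.5-2 min over 75 min. Slopes (mAU/min) normalized to vehicle as 100% and fit to a 4-parameter logistic; EC25% derived, plus EC50% for inhibitors.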

[4] = molecular target: T1, Porcine Ventricle myofibrils (left ventricle of Yucatan minipigs) (Sus scrofa, UniProt P79293); assay: Myofibril ATPase assay (PK/LDH NADH-coupled), ventricle myofibrils; type: biochemical
T1 construct: Myofibrils from porcine cardiac muscle was isolated from the left ventricle of Yucatan minipigs; tissue Exemplar Genetics; host or cells: left ventricle of Yucatan minipigs
T1 sequence (P79293 whole entry): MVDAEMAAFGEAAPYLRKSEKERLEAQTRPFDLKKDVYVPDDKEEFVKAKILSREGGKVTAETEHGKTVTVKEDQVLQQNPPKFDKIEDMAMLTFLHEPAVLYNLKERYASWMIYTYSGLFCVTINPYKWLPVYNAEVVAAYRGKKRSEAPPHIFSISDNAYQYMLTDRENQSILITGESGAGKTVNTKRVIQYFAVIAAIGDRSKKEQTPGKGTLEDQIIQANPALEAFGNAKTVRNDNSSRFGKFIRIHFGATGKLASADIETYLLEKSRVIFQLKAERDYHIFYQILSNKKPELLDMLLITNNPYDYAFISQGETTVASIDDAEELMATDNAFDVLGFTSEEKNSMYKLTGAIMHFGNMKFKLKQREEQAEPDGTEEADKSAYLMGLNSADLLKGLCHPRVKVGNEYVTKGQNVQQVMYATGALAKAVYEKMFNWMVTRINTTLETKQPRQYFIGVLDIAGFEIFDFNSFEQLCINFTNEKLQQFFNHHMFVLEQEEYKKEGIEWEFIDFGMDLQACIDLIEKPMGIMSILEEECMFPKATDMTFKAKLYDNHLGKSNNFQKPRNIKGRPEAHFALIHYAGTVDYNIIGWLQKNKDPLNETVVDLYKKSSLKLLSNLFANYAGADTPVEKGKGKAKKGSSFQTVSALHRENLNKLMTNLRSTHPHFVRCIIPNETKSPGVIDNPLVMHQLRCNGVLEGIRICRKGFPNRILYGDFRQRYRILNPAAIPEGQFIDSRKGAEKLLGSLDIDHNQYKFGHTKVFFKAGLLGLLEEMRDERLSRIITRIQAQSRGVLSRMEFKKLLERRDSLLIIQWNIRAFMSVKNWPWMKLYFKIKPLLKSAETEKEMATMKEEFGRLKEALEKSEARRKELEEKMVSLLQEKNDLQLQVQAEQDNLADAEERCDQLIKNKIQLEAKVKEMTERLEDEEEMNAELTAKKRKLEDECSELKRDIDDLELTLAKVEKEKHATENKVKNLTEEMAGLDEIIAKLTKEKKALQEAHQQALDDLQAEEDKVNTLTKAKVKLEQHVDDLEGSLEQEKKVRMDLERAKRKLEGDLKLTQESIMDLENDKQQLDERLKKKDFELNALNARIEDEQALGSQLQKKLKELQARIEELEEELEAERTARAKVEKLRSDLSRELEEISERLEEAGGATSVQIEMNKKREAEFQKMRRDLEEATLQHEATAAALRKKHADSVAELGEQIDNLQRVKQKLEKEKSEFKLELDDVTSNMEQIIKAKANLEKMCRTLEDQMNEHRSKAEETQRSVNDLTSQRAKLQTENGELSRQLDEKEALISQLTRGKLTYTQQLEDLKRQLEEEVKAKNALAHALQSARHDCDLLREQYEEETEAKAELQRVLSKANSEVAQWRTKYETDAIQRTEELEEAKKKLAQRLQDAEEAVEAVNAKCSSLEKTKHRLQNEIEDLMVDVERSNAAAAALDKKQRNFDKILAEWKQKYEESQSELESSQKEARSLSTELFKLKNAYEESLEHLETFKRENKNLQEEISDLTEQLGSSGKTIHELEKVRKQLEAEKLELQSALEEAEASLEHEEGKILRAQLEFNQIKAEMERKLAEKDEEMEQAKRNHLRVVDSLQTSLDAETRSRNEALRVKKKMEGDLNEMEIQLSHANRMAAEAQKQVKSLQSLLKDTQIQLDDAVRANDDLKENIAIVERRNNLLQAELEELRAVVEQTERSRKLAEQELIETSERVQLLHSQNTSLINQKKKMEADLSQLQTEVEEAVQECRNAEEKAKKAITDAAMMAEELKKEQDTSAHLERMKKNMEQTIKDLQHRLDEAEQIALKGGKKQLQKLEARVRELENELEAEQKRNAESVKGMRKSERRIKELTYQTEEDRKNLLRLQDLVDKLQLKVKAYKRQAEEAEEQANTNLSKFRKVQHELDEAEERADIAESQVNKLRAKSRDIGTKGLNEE
Outline: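 Yucatan minipig left-ventricle myofibrils; ATPase measured by PK/LDH-coupled NADH loss at 340 nm, read every 1.5-2 min for 75 min. Slopes normalized to vehicle (100%) and fit to 4-parameter logistic model; EC25 and, for inhibitors, EC50 calculated.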

[5] = EDV (LV volume, Teichholz formula), read-out: EDV % vs. VEH
[6] = LV fractional shortening, read-out: FS % vs. VEH
[7] = heart rate, read-out: HR % vs. VEH
[8] = systolic wall-thickening index, read-out: SWT % vs. VEH

Row | Compound | Rabbit Psoas IC25 ([1]; Table 8) [µM] | Porcine Atria IC25 ([3]; Table 8) [µM] | Porcine Ventricle IC25 ([4]; Table 8) [µM] | Rabbit Psoas IC25 ([1]; Table 7) [µM] | Porcine Atria IC25 ([3]; Table 7) [µM] | Porcine Ventricle IC25 ([4]; Table 7) [µM] | change in vivo at 10 mg/kg [2, 5] [%] | change in vivo at 10 mg/kg [2, 6] [%] | change in vivo at 10 mg/kg [2, 7] [%] | change in vivo at 10 mg/kg [2, 8] [%]
1 | Cc1nc(C#N)cnc1C(C)NC(=O)CN1Cc2c(ccc(F)c2F)NC1=O (single isomer, unassigned) [Compound B55] | 0.0114 | 0.05 | 0.0533 |  |  |  | 70 | -36 | -5 | 10
2 | C[C@H](NC(=O)CN1Cc2c(ccc(F)c2F)NC1=O)c1ncc(C#N)cc1F [Compound B142] | 0.02168 | 0.04 | 0.05434 |  |  |  | 21 | -81 | 6 | -78
3 | N#Cc1c(F)ccc2c1CN(CC(=O)N[C@@H](CO)c1ccc(F)cc1F)C(=O)N2 [Compound B152] | 0.03953 | 0.17 | 0.2946 |  |  |  | -6 | 6 | 1 | -2
4 | O=C(CN1Cc2cc(F)ccc2NC1=O)N[C@@H](CO)c1ncc(F)cc1F [Compound B181] | 0.242 | 0.13 | 1.905 |  |  |  | -6 | -13 | 8 | -5
5 | C[C@@H](NC(=O)CN1C(=O)Nc2ccc(F)c(F)c2C1O)c1ncc(C#N)cc1F (some centres unmarked) [Compound B327] |  |  |  |  |  |  | -2 | -1 | 5 | 10
6 | C[C@@H](NC(=O)CN1Cc2cc(F)c(F)cc2NC1=O)c1ncc(C#N)cc1F [Compound B357] | 50.29 | 1.56 | 100.00 |  |  |  | 5 | -8 | -5 | -5
7 | [2H]C1([2H])c2c(ccc(F)c2F)NC(=O)N1CC(=O)N[C@@H](C)c1ncc(C#N)cc1F [Compound B366] | 0.05 | 0.07 | 0.77 |  |  |  | 82 | -71 | -2 | -41
8 | [2H]C1([2H])c2c(ccc(F)c2F)NC(=O)N1CC(=O)N[C@H](C)c1ncc(C#N)cc1F [Compound B367] | 0.78 | 0.32 | 0.55 |  |  |  | -6 | -31 | 10 | -32

Second part, led by results:

Row | Rabbit Psoas IC25 ([1]; Table 8) [µM] | Porcine Atria IC25 ([3]; Table 8) [µM] | Porcine Ventricle IC25 ([4]; Table 8) [µM] | Rabbit Psoas IC25 ([1]; Table 7) [µM] | Porcine Atria IC25 ([3]; Table 7) [µM] | Porcine Ventricle IC25 ([4]; Table 7) [µM] | Compound | change in vivo at 10 mg/kg [2, 5] [%] | change in vivo at 10 mg/kg [2, 6] [%] | change in vivo at 10 mg/kg [2, 7] [%] | change in vivo at 10 mg/kg [2, 8] [%]
9 |  |  |  | 0.0567 | 0.36 | 11.42 | C[C@H](NC(=O)CN1Cc2c(ccnc2OCC(F)F)NC1=O)c1ccc(F)cc1F [Compound N122] |  |  |  | 
10 |  |  |  | 0.03514 | 0.07 | 0.8592 | C[C@H](NC(=O)CN1Cc2nc(F)ccc2NC1=O)c1ccc(F)cc1F [Compound N123] |  |  |  | 
11 |  |  |  | 0.0503 | 0.08 | 0.2452 | C[C@H](NC(=O)CN1Cc2c(ccnc2F)NC1=O)c1ccc(F)cc1F [Compound N124] |  |  |  | 
12 |  |  |  | 0.0423 | 0.68 | 2.663 | COc1nccc2c1CN(CC(=O)N[C@@H](C)c1ccc(F)cc1F)C(=O)N2 [Compound N125, N-[(1S)-1-(2,4-Difluorophenyl)ethyl]-2-{5-methoxy-2-oxo-1H,4H-pyrido[4,3-d]pyrimidin-3-yl}acetamide] |  |  |  | 
13 |  |  |  | 0.07562 | 0.60 | 4.027 | C[C@H](NC(=O)CN1Cc2c(ccnc2C(F)(F)F)NC1=O)c1ccc(F)cc1F [Compound N126] |  |  |  | 
14 |  |  |  | 0.2931 | 3.12 | 73.05 | C[C@H](NC(=O)CN1Cc2c(ccnc2C2CC2)NC1=O)c1ccc(F)cc1F [Compound N127, 2-[5-Cyclopropyl-2-oxo-1H,4H-pyrido[4,3-d]pyrimidin-3-yl]-N-[(1S)-1-(2,4-difluorophenyl)ethyl]acetamide] |  |  |  | 
15 |  |  |  | 0.0418 | 0.08 | 0.2533 | C[C@H](NC(=O)CN1Cc2c(ccnc2Cl)NC1=O)c1ccc(F)cc1F [Compound N128, 2-{5-Chloro-2-oxo-1H,4H-pyrido[4,3-d]pyrimidin-3-yl}-N-[(1S)-1-(2,4-difluorophenyl)ethyl]acetamide] |  |  |  | 
16 |  |  |  | 0.559 | 4.20 | 4.847 | Cc1nccc2c1CN(CC(=O)N[C@@H](C)c1ccc(F)cc1F)C(=O)N2 [Compound N129, N-[(1S)-1-(2,4-Difluorophenyl)ethyl]-2-{5-methyl-2-oxo-1H,4H-pyrido[4,3-d]pyrimidin-3-yl}acetamide] |  |  |  | 
17 |  |  |  | 0.688 | 1.54 | 100 | O=C(CN1Cc2cnccc2NC1=O)N[C@H]1CCCc2cc(F)cc(F)c21 [Compound N130] |  |  |  | 
18 |  |  |  | 8.051 | 36.11 | 100 | C[C@H](NC(=O)CN1Cc2cnccc2NC1=O)c1ccc(Cl)cc1 [Compound N131] |  |  |  | 
19 |  |  |  | 1.636 | 3.75 | 97.09 | Cc1cc(F)ccc1[C@H](C)NC(=O)CN1Cc2cnccc2NC1=O [Compound N132] |  |  |  | 
20 |  |  |  | 0.8391 | 2.80 | 13.9 | C[C@H](NC(=O)CN1Cc2cnccc2NC1=O)c1ccc(F)cc1F [Compound N133] |  |  |  | 
21 |  |  |  | 100.00 | 6.42 | 100.00 | N#Cc1cnc2c(n1)CC[C@H]2NC(=O)CN1C(=O)Nc2ccc(C#N)nc2C12CC2 [Compound N135] |  |  |  | 
22 |  |  |  | 100.00 | 0.29 | 10.90 | N#Cc1cnc2c(n1)CC[C@@H]2NC(=O)CN1C(=O)Nc2ccc(C#N)nc2C12CC2 [Compound N136] |  |  |  | 
